The subject of the test is Ba/F3 expressing EGFR Del19/T790M/C797S mutations. Kind of test: Inhibitory activity on proliferation of Ba/F3 cell overexpressing EGFR C797S (Cell Titer-Glo). The settings on record: Mus musculus, BaF3; 72 hours treatment, cell growth rate vs control; read-out: Ba/F3 (EGFR DTC) GI50. The test is classed as cell-based. How it is done:
<Experimental Example 2> Evaluation of Inhibitory Activity on Proliferation of Ba/F3 Cell Overexpressing EGFR C797S
The following experiments were performed to evaluate the inhibitory activity of the compounds according to the present invention on the proliferation of Ba/F3 expressing EGFR Del19/T790M/C797S mutations.
Ba/F3 cells were cultured in RPMI-1640 medium supplemented with 10% fetal bovine serum (FBS), and 3000 cells were seeded into each well of a white clear bottom 96 well plate (Corning) 24 hours prior to compound treatment. The compounds were diluted in dimethyl sulfoxide (3-fold dilution, total of 12 concentrations) and injected at 1 μl each so that the final concentration was […] to 5 μM. After 72 hours post treatment with compounds, living cells were reacted in a 37° C., CO2 incubator for […], followed by 10 minutes at room temperature using Cell Titer-Glo luminescent cell-viability reagent (Promega), and the luminescence intensity thereof was measured using a reader (SynergyNeo2, Biotek). The result values were calculated as a cell growth rate (%) compared to the control group. GI50 values were calculated using the GraphPad Prism version 8.4.3 (GraphPad software Inc., San Diego) program.
For orientation: Cellular ATP, detected with luciferase, serves as a proxy for viable cell number.
Take `COCCN(C)C(=O)c1cnc(Nc2ccnc(N3CC[C@H](OC)[C@H](F)C3)n2)cc1NC(C)C` (relative stereo) [Example 30, 6-((2-(cis-3-fluoro-4-methoxypiperidin-1-yl)pyrimidin-4-yl)amino)-4-(isopropylamino)-N-(2-methoxyethyl)-N-methylnicotinamide]: the GI50 was 500 to 5000 nM.

Consider `CO[C@H]1CCN(c2nccc(Nc3cc(NC(C)C)c(C(=O)NCC4CCCC4)cn3)n2)C[C@H]1F` [Example 91, N-(cyclopentylmethyl)-6-((2-(cis-3-fluoro-4-methoxypiperidin-1-yl)pyrimidin-4-yl)amino)-4-(isopropylamino)nico-tinamide], for which the GI50 is 500 to 5000 nM.

In the case of `CO[C@H]1CCN(c2nccc(Nc3cc(NC(C)C)c(C(=O)N(C)CCN(C)C)cn3)n2)C[C@H]1F` (relative stereo) [Example 29, N-(2-(dimethylamino)ethyl)-6-((2-(cis-3-fluoro-4-methoxypiperidin-1-yl)pyrimidin-4-yl)amino)-4-(isopropylamino)-N-methylnicotinamide], the GI50 is 500 to 5000 nM.

Regarding `C[C@H]1CCOc2c(cnn2C)-c2nccc(n2)Nc2cc(c(C(=O)NCC(F)(F)C(F)(F)F)cn2)N1` [Example 103, (S)-1^1,6-dimethyl-N-(2,2,3,3,3-pentafluoropropyl)-1^1H-9-oxa-3,5-diaza-2(2,4)-pyrimidina-4(2,4)-pyridina-1(4.,5)-pyrazolacyclo-nonaphane-4^5-carboxamide], the GI50 was below 500 nM.

With `C[C@H]1CCOc2c(cnn2C)-c2nccc(n2)Nc2cc(c(C(=O)NCCCC(F)(F)F)cn2)N1` [Example 88, (S)-1^1,6-dimethyl-N-(4,4,4-trifluorobutyl)-1^1H-9-oxa-3,5-diaza-2(2,4)-pyrimidina-4(2,4)-pyridina-1(4,5)-pyrazolacyclo-nonaphane-4^5-carboxamide], the GI50 is below 500 nM.

With `CC(C)Nc1nc(Nc2ccnc(-c3cnn(S(=O)(=O)C4CC4)c3)c2)ncc1C(=O)NCCCC(F)(F)F` [Example 92, 2-((2-(1-(cyclopropylsulfonyl)-1H-pyrazol-4-yl)pyridin-4-yl)amino)-4-(isopropylamino)-N-(4,4,4-trifluorobutyl)pyrimi-din-5-carboxamide], the GI50 lay within 500 to 5000 nM.

On to `CO[C@H]1CCN(c2nccc(Nc3cc(NC(C)C)c(C(=O)Nc4cc(N5CCN(C)CC5)cc(C(F)(F)F)c4)cn3)n2)C[C@H]1F` [Example 24, 6-((2-(cis-3-fluoro-4-methoxypiperidin-1-yl)pyrimidin-4-yl)amino)-4-(isopropylamino)-N-(3-(4-methylpiperazin-1-yl)-5-(trifluoromethyl)phe-nyl)nicotinamide], for which the GI50 lay in the range of 500 to 5000 nM.

`CO[C@H]1CCN(c2cc(Nc3ncc(C(=O)NCCCC(F)(F)F)c(NC(C)C)n3)ccn2)C[C@H]1F` [Example 93, 2-((2-((3R,4S)-3-fluoro-4-methoxypiperidin-1-yl)pyridin-4-yl)amino)-4-(isopropylamino)-N-(4,4,4-trifluorobutyl)pyrimi-dine-5-carboxamide]: the GI50 was 500 to 5000 nM.

As for `CC(=O)c1cc(-c2nccc(Nc3cc(NC(C)C)c(C(=O)N4C[C@H](CS(C)(=O)=O)[C@H]4C)cn3)n2)ccc1O` [Example 134, 1-(2-hydroxy-5-(4-((4-(isopropylamino)-5-((2R,3S)-2-methyl-3-((methylsulfonyl)meth-yl)azetidine-1-carbonyl)pyridin-2-yl)amino)pyrimidin-2-yl)phenyl)ethan-1-one], the GI50 is 500 to 5000 nM.

Turning to `CC(C)Nc1cc(Nc2ccnc(-c3cnn(C(=O)C4CC4)c3)n2)ncc1C(=O)NCC#N` [Example 87, N-(cyanomethyl)-6-((2-(1-(cyclo-propanecarbonyl)-1H-pyrazol-4-yl)pyrimidin-4-yl)amino)-4-(isopropylamino)nico-tinamide], the GI50 lay within 500 to 5000 nM.

As to `CC(C)Nc1cc(Nc2ccnc(-c3cnn(S(=O)(=O)C4CC4)c3)n2)ncc1C(=O)N1CC(CS(=O)(=O)C(C)C)C1` [Example 130, (6-((2-(1-(cyclopropylsulfonyl)-1H-pyrazol-4-yl)pyrimidin-4-yl)amino)-4-(isopropylamino)pyri-din-3-yl)(3-((isopropylsulfonyl)methyl)azetidin-1-yl)methanone], the GI50 is below 500 nM.

In the case of `CO[C@H]1CCN(c2cc(Nc3ncc(C(=O)NCCS(C)(=O)=O)c(NC(C)C)n3)ccn2)C[C@H]1F` [Example 95, 2-((2-((3R,4S)-3-fluoro-4-methoxypiperidin-1-yl)pyridin-4-yl)amino)-4-(isopropylamino)-N-(2-(methylsulfonyl)ethyl) pyrimidin-5-carboxamide], the GI50 was 500 to 5000 nM.

As to `CC(C)Nc1cc(Nc2ccnc(-c3ccc(O)c(C=O)c3)n2)ncc1C(=O)N1C[C@H](CS(C)(=O)=O)[C@H]1C` [Example 133, 2-hydroxy-5-(4-((4-(isopropylamino)-5-((2R,3S)-2-methyl-3-((methyl-sulfonyl)meth-yl)azetidine-1-carbonyl)pyridin-2-yl)amino)pyrimidin-2-yl)benzaldehyde], the GI50 was 500 to 5000 nM.

As to `C[C@H]1CCOc2c(cnn2C)-c2cc(ccn2)Nc2cc(c(C(=O)NCCC(F)(F)F)cn2)N1` [Example 123, (S)-1^1,6-dimethyl-N-(3,3,3-trifluoropropyl)-1^1H-9-oxa-3,5-diaza-2,4(2,4)-dipyridina-1(4,5)-pyrazolacyclo-nonaphane-4^5-carboxamide], the GI50 is below 500 nM.

Regarding `COCCN(C)C(=O)c1cnc(Nc2ccnc(-c3cnn(S(=O)(=O)C4CC4)c3)n2)cc1NC(C)C` [Example 27, 6-((2-(1-(cyclopropylsulfonyl)-1H-pyrazol-4-yl)pyrimidin-4-yl)amino)-4-(isopropylamino)-N-(2-methoxyethyl)-N-methylnicotinamide], the GI50 fell in the range of 500 to 5000 nM.

Regarding `CC(C)S(=O)(=O)CC1CN(C(=O)c2cnc3cc2N[C@@H](C)CCOc2c(cnn2C)-c2nccc(n2)N3)C1` [Example 121, (S)-(1^1,6-methyl-1^1H-9-oxa-3,5-diaza-2(2,4)-pyrimidina-4(2,4)-pyridina-1(4,5)-pyrazolacyclo-nonaphane-4^5-yl)(3-((isopropylsulfonyl)methyl)azetidin-1-yl)methanone], the GI50 is below 500 nM.

For the compound `CO[C@H]1CCN(c2nccc(Nc3cc(NC(C)C)c(C(=O)NCCS(C)(=O)=O)cn3)n2)C[C@H]1F` [Example 94, 6-((2-((3R,4S)-3-fluoro-4-methoxypiperidin-1-yl)pyrimidin-4-yl)amino)-4-(isopropylamino)-N-(2-(methylsulfonyl)ethyl) nicotinamide], the GI50 was in the range of 500 to 5000 nM.

For the compound `CO[C@H]1CCN(c2nccc(Nc3cc(NC(C)C)c(C(=O)Nc4cnn(S(=O)(=O)C5CC5)c4)cn3)n2)C[C@H]1F` [Example 33, N-(1-(cyclopropylsulfonyl)-1H-pyrazol-4-yl)-6-((2-(cis-3-fluoro-4-methoxypiperidin-1-yl)pyrimidin-4-yl)amino)-4-(isopropylamino)nico-tinamide], the GI50 was 500 to 5000 nM.

Take `Cc1cc2cc(n1)-c1cnn(C)c1OCC[C@H](C)Nc1cc(ncc1C(=O)NCCC(F)(F)F)N2` [Example 124, (S)-1^1,2^6,6-trimethyl-N-(3,3,3-trifluoropropyl)-1^1H-9-oxa-3,5-diaza-2,4(2,4)-dipyridina-1(4,5)-pyrazolacyclo-nonaphane-4^5-carboxamide]: the GI50 lay in the range of 500 to 5000 nM.

`C[C@H]1CCOc2c(cnn2C)-c2nccc(n2)Nc2cc(c(C(=O)NCCC(F)(F)F)cn2)N1` [Example 89, (S)-1^1,6-dimethyl-N-(3,3,3-trifluoropropyl)-1^1H-9-oxa-3,5-diaza-2(2,4)-pyrimidina-4(2,4)-pyridina-1(4,5)-pyrazolacyclo-nonaphane-4^5-carboxamide]: the GI50 was below 500 nM.

With `C[C@H]1CCOc2c(cnn2C)-c2nccc(n2)Nc2cc(c(C(=O)Nc3cccc(CS(C)(=O)=O)c3)cn2)N1` [Example 125, (S)-1^1,6-dimethyl-N-(3-((methyl-sulfonyl)meth-yl)phenyl)-1^1H-9-oxa-3,5-diaza-2(2,4)-pyrimidina-4(2,4)-pyridina-1(4,5)-pyrazolacyclo-nonaphane-4^5-carboxamide], the GI50 was in the range of 500 to 5000 nM.

For `C[C@H]1CCOc2c(cnn2C)-c2nccc(n2)Nc2cc(c(C(=O)Nc3cc(N4CCN(C)CC4)cc(N(C)S(C)(=O)=O)c3)cn2)N1` [Example 114, (S)-1^1,6-dimethyl-N-(3-(N-methyl-methylsulfonami-do)-5-(4-methylpiperazin-1-yl)phenyl)-1^1H-9-oxa-3,5-diaza-2(2,4)-pyrimidina-4(2,4)-pyridina-1(4,5)-pyrazolacyclo-nonaphane-4^5-carboxamide], the GI50 is below 500 nM.

`CC(C)Nc1cc(Nc2ccnc(-c3cnn(S(=O)(=O)C4CC4)c3)n2)ncc1C(=O)NC[C@@H](F)C(C)(C)O` [Example 132, (R)-6-((2-(1-(cyclopropylsulfonyl)-1H-pyrazol-4-yl)pyrimidin-4-yl)amino)-N-(2-fluoro-3-hydroxy-3-methylbutyl)-4-(isopropylamino)nico-tinamide]: the GI50 was below 500 nM.

For `CO[C@@H]1CCN(c2nccc(Nc3cc(NC(C)C)c(C(=O)N4CC(CS(=O)(=O)C(C)C)C4)cn3)n2)C[C@@H]1F` [Example 131, (6-((2-(cis-3-fluoro-4-methoxypiperidin-1-yl)pyrimidin-4-yl)amino)-4-(isopropylamino)pyri-din-3-yl)(3-((isopropylsulfonyl)methyl)azetidin-1-yl)methanone], the GI50 lay within 500 to 5000 nM.
